Reference: paper PMC10644720 (Frontiers in Pharmacology, 2023)

How the values were obtained:
[1] = tested on: human washed platelets; experiment: Platelet superoxide anion and H2O2 release (DHE, Amplex Red); assay type: cell-based; conditions: convulxin 5 ng/mL; luteolin 25 μM
Procedure: A ROS probe via a fluorescent enzyme marker was added. O2 ^− and H2O2 were measured using 2 μM Amplex Red (Cat No. ST010; Beyotime Institute of Biotechnology, Shanghai, China) or 2 μM Dihydroethidium (DHE, Cat No. S0063; Beyotime Institute of Biotechnology, Shanghai, China). O2 ^− and H2O2 were analyzed using a Fluoroskan Ascent fluorometer (Thermo Fisher, Waltham, Massachusetts, United States).

[2] = tested on: human washed platelets; experiment: Platelet-collagen static adhesion assay; assay type: cell-based
Procedure: As previously reported ([Banfi et al., 2022]), 50 μg/mL collagen and 25 μg/mL fibrinogen (Cat No. F3879-100 MG; Sigma-Aldrich, St. Louis, MO, United States) were used to coat coverslips overnight at 4°C. […] The coated slides were washed three times with PBS and blocked with 1% BSA (prepared in PBS) for 1 h at room temperature. The blocking solution was removed, and WPs were added for adhesion experiments. The WPs were allowed to adhere to the slides for 15–60 min at 37°C. The unadhered platelets were removed by PBS. The platelets were fixed with 2% paraformaldehyde solution for 15 min, broken using 1% Triton-100 for 5 min, and stained with phalloidin (1:1,000, Cat No.17466-45-4, Sigma-Aldrich) for 30 min away from light at room temperature. The platelet morphology was observed using an Olympus ix73 microscope (Olympus Corp., Shinjuku, Japan) and photographed. The number of platelet adhesions and spreading area were analyzed and calculated using ImageJ software.

[3] = tested on: integrin αIIbβ3; experiment: PAC-1 expression (integrin αIIbβ3 activation) by flow cytometry; assay type: cell-based, human; conditions: collagen- and convulxin-induced
Procedure: Platelet membrane protein expression experiments were performed as previously reported, with slight modifications ([Babur et al., 2020]). WPs were added with 10 μM indomethacin to prevent platelet aggregation. After incubation, the WPs were activated by adding 1 mM calcium chloride and agonists to platelets at 37°C. After 30 min, 10 μL of WPs was taken, and the reaction was terminated by adding 90 μL Tyrode’s buffer and 10 mM EDTA. PerCP-coupled anti-CD61 antibody (1:50; Cat No. 336410; Biolegend, San Diego, CA, United States), Alexa Fluor® 647 labeled PAC-1 (1:50; Cat No. 362806; BioLegend), and FITC-coupled anti-CD62p antibody (1:50; Cat No. 555523; BD Biosciences, San Diego, CA, United States) were incubated with platelets for 30 min at 37°C in the dark. The platelet surface fluorescence intensity was analyzed using a FacsCanto II flow cytometer (BD Biosciences, San Diego, CA, United States) to analyze the expression of platelet surface membrane proteins. Cell membrane protein expression data were analyzed using FlowJo software V10.

[4] = tested on: pulmonary thrombosis; experiment: Collagen-epinephrine-induced acute pulmonary embolism model and plasma oxidative markers; assay type: in vivo, C57BL/6 mice; conditions: luteolin 35 μM/kg
Procedure: The acute pulmonary embolism model in mice was similar to the previously reported literature with slight modifications ([Pan et al., 2021]). […] after a retro-orbital sinus injection of collagen (100 μg/kg)-epinephrine (300 μg/kg), the mice were anesthetized by pentobarbital (45 mg/kg, i.p.). Whole blood obtained from the eyes was anticoagulated with EDTA·2Na. Whole blood was centrifuged at 3,000 rpm for 10 min to get plasma. Measurement of MDA and SOD in plasma followed the manufacturer’s protocols. Mice were sacrificed by cervical dislocation. The lung tissue was taken and fixed in 4% paraformaldehyde overnight. Lung and sternum tissues were fixed in 4% paraformaldehyde, embedded in paraffin, and sectioned into 5-μm sections. After dewaxing and washing, the slices were incubated overnight at 4°C for immunostaining with anti-mouse CD41 antibody (Cat No. GTX113758, GeneTex Inc., Irvine, CA, United States) 0.63 μg/mL or with anti-mouse CD42b antibody (Cat No. 12860-1-AP; Proteintech Group Inc., Chicago, IL, United States) 1 μg/mL or an equivalent concentration of polyclonal non-immune IgG (Cat No. GTX213110-01; GeneTex) as control. The sections were washed three times and incubated for 50 min at room temperature with secondary antibodies. The nuclei were counterstained using hematoxylin. The tissues were observed using 3,3′-Diaminobenzidine tetrahydrochloride.

[5] = tested on: human platelets; conditions: cited from earlier work
[6] = tested on: thrombosis and infarct area; parameters: method as in Liu et al., 2022; conditions: rats; gavage for 7 days at 20 mg/kg/day; ref Liu et al., 2022; cited from earlier work
[7] = tested on: coagulation factor X; parameters: method as in Choi et al. (2015); conditions: ref Choi et al. (2015); cited from earlier work
[8] = tested on: carotid thrombosis; parameters: method as in Choi et al. (2015); conditions: mice; ref Choi et al. (2015); cited from earlier work

O=c1cc(-c2ccc(O)c(O)c2)oc2cc(O)cc(O)c12 [Luteolin]
platelet hydrogen peroxide release [1]: inhibited | platelet superoxide anion release [1]: inhibited | adherent area vs vehicle ([2]; luteolin 25 µM, at 15, 30, 45, and 60 min): decreased | surface per platelet vs vehicle ([2]; luteolin 25 µM, at 15, 45, and 60 min): decreased | surface per platelet vs vehicle ([2]; luteolin 2.5 and 10 µM, at 15 and 45 min): decreased | adherent area vs vehicle ([2]; luteolin 2.5 and 10 µM, at 60 min): slightly decreased | platelet adherence (number of adherent platelets) on collagen vs vehicle ([2]; luteolin 10 and 25 µM, at 45 and 60 min): significantly decreased | PAC-1 expression (integrin αIIbβ3 inside-out activation) [3]: dose-dependently inhibited | area and size of thrombus formation in lungs ([4]; 30 min before collagen-epinephrine): significantly attenuated | MDA levels in plasma ([4]; mice with pulmonary embolism): significantly decreased | SOD activity in plasma ([4]; mice with pulmonary embolism): increased | IC50 ([5]; 2 μM U46619, ref Guerrero et al., 2005, read-out: IC50, inhibition of U46619-induced platelet aggregation): 47 ± 13.3 µM | ADP induced platelet aggregation ([5]; 25–100 μM luteolin, 1 h incubation, ref Lu et al., 2021): inhibited | collagen, U46619, and ADP-induced activation in human platelets ([5]; ref Guerrero et al., 2005, Guerrero et al., 2007, Lu et al., 2021): significantly inhibits | thrombosis and infarct area [6]: significantly reduce | coagulation factor X activity [7]: effectively inhibits | FeCl3-induced carotid thrombosis [8]: significantly inhibits
